Assay results: ChEMBL document CHEMBL1155271, “Synthesis, crystal structures and antibacterial activity studies of aza-derivatives of phytoalexin from cotton plant--gossypol” (2009)
Converted amounts (≈) assume the structure as drawn. The source made the active and inactive calls. No cut-off for these calls is given here.

Assays:
Type in all cases: functional
Staphylococcus aureus [1] = assay: Antimicrobial activity against Methicillin susceptible Staphylococcus aureus 206/7 by twofold dilution technique
Staphylococcus aureus [2] = assay: Antimicrobial activity against Staphylococcus aureus NCTC 4163 after 18 hrs by twofold dilution technique; conditions: NCTC 4163, 18 h
Micrococcus luteus [3] = assay: Antimicrobial activity against Micrococcus luteus ATCC 10240 by twofold dilution technique
Staphylococcus aureus [4] = assay: Antimicrobial activity against Methicillin susceptible Staphylococcus aureus 207/7 by twofold dilution technique
Staphylococcus aureus [5] = assay: Antimicrobial activity against Methicillin susceptible Staphylococcus aureus 242/7 by twofold dilution technique
Staphylococcus aureus [6] = assay: Antimicrobial activity against Methicillin susceptible Staphylococcus aureus 237/7 by twofold dilution technique
Staphylococcus aureus [7] = assay: Antimicrobial activity against methicillin-resistant Staphylococcus aureus 140/6 by twofold dilution technique
Staphylococcus aureus [8] = assay: Antimicrobial activity against methicillin-resistant Staphylococcus aureus 217/7 by twofold dilution technique
Staphylococcus aureus [9] = assay: Antimicrobial activity against Staphylococcus aureus ATCC 6538 after 18 hrs by twofold dilution technique; conditions: ATCC 6538, 18 h
Enterococcus hirae [10] = assay: Antimicrobial activity against Enterococcus hirae ATCC 10541 at 400 ug after 18 hrs by disk diffusion method
Staphylococcus aureus [11] = assay: Antimicrobial activity against Staphylococcus aureus ATCC 25923 at 400 ug after 18 hrs by disk diffusion method; conditions: ATCC 25923, 18 h, read-out: DIZ
Bacillus subtilis [12] = assay: Antimicrobial activity against Bacillus subtilis ATCC 6633 after 18 hrs by twofold dilution technique; conditions: ATCC 6633, 18 h
Micrococcus luteus [13] = assay: Antimicrobial activity against Micrococcus luteus ATCC 10240 at 400 ug after 18 hrs by disk diffusion method; conditions: ATCC 10240, 18 h, read-out: DIZ
Staphylococcus aureus [14] = assay: Antimicrobial activity against Methicillin susceptible Staphylococcus aureus 208/7 by twofold dilution technique
Staphylococcus aureus [15] = assay: Antimicrobial activity against methicillin-resistant Staphylococcus aureus 141/6 by twofold dilution technique
Staphylococcus aureus [16] = assay: Antimicrobial activity against methicillin-resistant Staphylococcus aureus 200/7 by twofold dilution technique
Staphylococcus aureus [17] = assay: Antimicrobial activity against Methicillin susceptible Staphylococcus aureus 213/7 by twofold dilution technique
Staphylococcus aureus [18] = assay: Antimicrobial activity against methicillin-resistant Staphylococcus aureus 136/6 by twofold dilution technique
Staphylococcus aureus [19] = assay: Antimicrobial activity against methicillin-resistant Staphylococcus aureus 144/6 by twofold dilution technique
Micrococcus luteus [20] = assay: Antimicrobial activity against Micrococcus luteus ATCC 9341 after 18 hrs by twofold dilution technique; conditions: ATCC 9341, 18 h
Staphylococcus aureus [21] = assay: Antimicrobial activity against Staphylococcus aureus ATCC 25923 after 18 hrs by twofold dilution technique; conditions: ATCC 25923, 18 h
Staphylococcus aureus [22] = assay: Antimicrobial activity against Staphylococcus aureus ATCC 29213 at 400 ug after 18 hrs by disk diffusion method; conditions: ATCC 29213, 18 h, read-out: DIZ
[23] = tested on: Staphylococcus epidermidis; assay: Antimicrobial activity against Staphylococcus epidermidis ATCC 12228 by twofold dilution technique
Staphylococcus aureus [24] = assay: Antimicrobial activity against methicillin-resistant Staphylococcus aureus 236/7 by twofold dilution technique
[25] = tested on: Staphylococcus epidermidis; assay: Antimicrobial activity against Staphylococcus epidermidis ATCC 12228 at 400 ug after 18 hrs by disk diffusion method; conditions: ATCC 12228, 18 h, read-out: DIZ
Bacillus subtilis [26] = assay: Antimicrobial activity against Bacillus subtilis ATCC 6633 at 400 ug after 18 hrs by disk diffusion method; conditions: ATCC 6633, 18 h, read-out: DIZ
Staphylococcus aureus [27] = assay: Antimicrobial activity against Methicillin susceptible Staphylococcus aureus 239/7 by twofold dilution technique
Staphylococcus aureus [28] = assay: Antimicrobial activity against Methicillin susceptible Staphylococcus aureus 212/7 by twofold dilution technique
Staphylococcus aureus [29] = assay: Antimicrobial activity against methicillin-resistant Staphylococcus aureus 218/7 by twofold dilution technique
Bacillus cereus [30] = assay: Antimicrobial activity against Bacillus cereus ATCC 11778 after 18 hrs by twofold dilution technique; conditions: ATCC 11778, 18 h
Staphylococcus aureus [31] = assay: Antimicrobial activity against Staphylococcus aureus ATCC 29213 after 18 hrs by twofold dilution technique; conditions: ATCC 29213, 18 h
Staphylococcus aureus [32] = assay: Antimicrobial activity against methicillin-resistant Staphylococcus aureus 143/6 by twofold dilution technique
Staphylococcus aureus [33] = assay: Antimicrobial activity against Staphylococcus aureus NCTC 4163 at 400 ug after 18 hrs by disk diffusion method; conditions: NCTC 4163, 18 h, read-out: DIZ
Bacillus cereus [34] = assay: Antimicrobial activity against Bacillus cereus ATCC 11778 at 400 ug after 18 hrs by disk diffusion method; conditions: ATCC 11778, 18 h, read-out: DIZ
Staphylococcus aureus [35] = assay: Antimicrobial activity against Staphylococcus aureus ATCC 6538 at 400 ug after 18 hrs by disk diffusion method; conditions: ATCC 6538, 18 h, read-out: DIZ
Staphylococcus aureus [36] = assay: Antimicrobial activity against Methicillin susceptible Staphylococcus aureus 243/7 by twofold dilution technique
Staphylococcus aureus [37] = assay: Antimicrobial activity against methicillin-resistant Staphylococcus aureus 146/6 by twofold dilution technique
Enterococcus hirae [38] = assay: Antimicrobial activity against Enterococcus hirae ATCC 10541 after 18 hrs by twofold dilution technique; conditions: ATCC 10541, 18 h
Micrococcus luteus [39] = assay: Antimicrobial activity against Micrococcus luteus ATCC 9341 at 400 ug after 18 hrs by disk diffusion method
Staphylococcus aureus [40] = assay: Antimicrobial activity against Methicillin susceptible Staphylococcus aureus 238/7 by twofold dilution technique

Structure (SMILES)	MIC (Staphylococcus aureus [1]) [µg/mL]	MIC (Staphylococcus aureus [2]) [µg/mL]	MIC (Micrococcus luteus [3]) [µg/mL]	MIC (Staphylococcus aureus [4]) [µg/mL]	MIC (Staphylococcus aureus [5]) [µg/mL]	MIC (Staphylococcus aureus [6]) [µg/mL]	MIC (Staphylococcus aureus [7]) [µg/mL]	MIC (Staphylococcus aureus [8]) [µg/mL]	MIC (Staphylococcus aureus [9]) [µg/mL]	zone of inhibition at 400 µg/disc (Staphylococcus aureus [11]) [mm]	MIC (Bacillus subtilis [12]) [µg/mL]	zone of inhibition at 400 µg/disc (Micrococcus luteus [13]) [mm]	MIC (Staphylococcus aureus [14]) [µg/mL]	MIC (Staphylococcus aureus [15]) [µg/mL]	MIC (Staphylococcus aureus [16]) [µg/mL]	MIC (Staphylococcus aureus [17]) [µg/mL]	MIC (Staphylococcus aureus [18]) [µg/mL]	MIC (Staphylococcus aureus [19]) [µg/mL]	MIC (Micrococcus luteus [20]) [µg/mL]	MIC (Staphylococcus aureus [21]) [µg/mL]	also measured
COCCN/N=C/c1c(O)c(O)c(C(C)C)c2cc(C)c(-c3c(C)cc4c(C(C)C)c(O)c(O)c(/C=N/NCCOC)c4c3O)c(O)c12	50 (≈ 75.4 µM)	100 (≈ 151 µM)	100 (≈ 151 µM)	50 (≈ 75.4 µM)	50 (≈ 75.4 µM)	100 (≈ 151 µM)	50 (≈ 75.4 µM)	100 (≈ 151 µM)	50 (≈ 75.4 µM)	15	400 (≈ 604 µM)	14	50 (≈ 75.4 µM)	100 (≈ 151 µM)	50 (≈ 75.4 µM)	50 (≈ 75.4 µM)	100 (≈ 151 µM)	100 (≈ 151 µM)	50 (≈ 75.4 µM)	50 (≈ 75.4 µM)	zone of inhibition at 400 µg/disc (Enterococcus hirae [10]; ATCC 10541, 18 h, read-out: DIZ): 11 mm; zone of inhibition at 400 µg/disc (Staphylococcus aureus [22]): 14 mm; MIC [23]: 400 µg/mL (≈ 604 µM); MIC (Staphylococcus aureus [24]): 100 µg/mL (≈ 151 µM); zone of inhibition at 400 µg/disc [25]: 15 mm; zone of inhibition at 400 µg/disc (Bacillus subtilis [26]): 13 mm; MIC (Staphylococcus aureus [27]): 100 µg/mL (≈ 151 µM); MIC (Staphylococcus aureus [28]): 100 µg/mL (≈ 151 µM); MIC (Staphylococcus aureus [29]): 100 µg/mL (≈ 151 µM); MIC (Bacillus cereus [30]): 50 µg/mL (≈ 75.4 µM); MIC (Staphylococcus aureus [31]): 50 µg/mL (≈ 75.4 µM); MIC (Staphylococcus aureus [32]): 50 µg/mL (≈ 75.4 µM); zone of inhibition at 400 µg/disc (Staphylococcus aureus [33]): 14 mm; zone of inhibition at 400 µg/disc (Bacillus cereus [34]): 13 mm; zone of inhibition at 400 µg/disc (Staphylococcus aureus [35]): 13 mm; MIC (Staphylococcus aureus [36]): 100 µg/mL (≈ 151 µM); MIC (Staphylococcus aureus [37]): 100 µg/mL (≈ 151 µM); MIC (Enterococcus hirae [38]): 100 µg/mL (≈ 151 µM); diameter of the inhibition zone (DIZ) (Micrococcus luteus [39]): inactive; MIC (Staphylococcus aureus [40]): 50 µg/mL (≈ 75.4 µM)
COCCOCCN/N=C/c1c(O)c(O)c(C(C)C)c2cc(C)c(-c3c(C)cc4c(C(C)C)c(O)c(O)c(/C=N/NCCOCCOC)c4c3O)c(O)c12	100 (≈ 133 µM)	200 (≈ 266 µM)	200 (≈ 266 µM)	400 (≈ 533 µM)	50 (≈ 66.6 µM)	200 (≈ 266 µM)	200 (≈ 266 µM)	400 (≈ 533 µM)	100 (≈ 133 µM)	12	400 (≈ 533 µM)	11	400 (≈ 533 µM)	200 (≈ 266 µM)	200 (≈ 266 µM)	200 (≈ 266 µM)	100 (≈ 133 µM)	200 (≈ 266 µM)	200 (≈ 266 µM)	200 (≈ 266 µM)	diameter of the inhibition zone (DIZ) (Enterococcus hirae [10]): inactive; zone of inhibition at 400 µg/disc (Staphylococcus aureus [22]): 13 mm; MIC [23]: > 400 µg/mL; MIC (Staphylococcus aureus [24]): 100 µg/mL (≈ 133 µM); zone of inhibition at 400 µg/disc [25]: 12 mm; zone of inhibition at 400 µg/disc (Bacillus subtilis [26]): 11 mm; MIC (Staphylococcus aureus [27]): 400 µg/mL (≈ 533 µM); MIC (Staphylococcus aureus [28]): 400 µg/mL (≈ 533 µM); MIC (Staphylococcus aureus [29]): 200 µg/mL (≈ 266 µM); MIC (Bacillus cereus [30]): 100 µg/mL (≈ 133 µM); MIC (Staphylococcus aureus [31]): 100 µg/mL (≈ 133 µM); MIC (Staphylococcus aureus [32]): 400 µg/mL (≈ 533 µM); zone of inhibition at 400 µg/disc (Staphylococcus aureus [33]): 12 mm; zone of inhibition at 400 µg/disc (Bacillus cereus [34]): 11 mm; zone of inhibition at 400 µg/disc (Staphylococcus aureus [35]): 12 mm; MIC (Staphylococcus aureus [36]): 400 µg/mL (≈ 533 µM); MIC (Staphylococcus aureus [37]): 200 µg/mL (≈ 266 µM); MIC (Enterococcus hirae [38]): 200 µg/mL (≈ 266 µM); diameter of the inhibition zone (DIZ) (Micrococcus luteus [39]): inactive; MIC (Staphylococcus aureus [40]): 100 µg/mL (≈ 133 µM)
